Measurements as given in patent publication US20210222168A1, “METHODS FOR REACTIVATING GENES ON THE INACTIVE X CHROMOSOME” (THE GENERAL HOSPITAL CORPORATION, priority 2017, published 2021).
Entries after “also recorded” stand apart in the source; their conditions may differ.

Tests used:
Xi-Mecp2-Luc MEF cells [1] = settings: stated in parentheses only; target and source not given; cited from earlier work
[2] = tested on: Mecp2:Luciferase knock-in reporter on the Xi; test: Luciferase assay in Xi-Mecp2-Luc MEFs; format: cell-based, mouse; settings: for Xi-Mecp2 upregulation / reactivation in combination with the Xist ASO: 20 nM Xist ASO + small molecule inhibitor (EPZ6438 1 uM, VX680 1 uM, Aza 0.5 uM); for upregulation of MECP2 by other Xist gapmers: 20 nM ASO + 0.5 μM Aza (FIG. 7B-D)
Protocol: (§1) Mecp2-Luc fibroblast cell lines were a generous gift from Dr. Bedalov. The clonal hybrid (cast/mus) cell line (EY.T4) was previously developed in the lab (Yildirim E et al. (2011) X-chromosome hyperactivation in mammals via nonlinear relationships between chromatin states and transcription. Nat Struct Mol Biol 19:56-61). Passage number was kept below 25, no further verification of cell line identity was performed. They were maintained in DMEM-glutamax (Gibco), supplemented with fetal bovine serum (FBS, 10%), non-essential amino acids (1×, Gibco), HEPES buffer (25 mM, Gibco), penicillin/streptomycin (1×, Gibco) and 2-Mercaptoethanol (Sigma). Transfection was performed with 20 nM ASO assisted by Lipofectamine LTX with Plus reagent (Thermo Fisher).
Xa-Mecp2-Luc clone cell line was used in parallel for providing a scaling magnitude for normalizing Xi-driven luciferase signals, Cells were grown in a 12 well plate, trypsinized, counted, washed with PBS and dispensed in 20 ul of 1× cell culture lysis reagent (Promega). The mixture was vortexed and incubated for 5 min and then transferred to a zebra 96 well plate. The plate was read using a Perkin Elmer MicroBeta2 LumiJET that automatically adds 100 μl of Luciferase Assay Reagent (Promega) 2 sec before measuring the produced light for 10 sec. The corrected counts per second where divided by the number of cells for generating a luciferase-reactivation score per cell. For the initiating screen ASOs were used at 20 nM (transfected with lipofectamine) in combination with 0.5 uM Aza for 3 days. The reverse screen used 20 nM Xist ASO (transfected with lipofectamine) in combination with the small molecule inhibitors at different concentrations (see Table S-II) for 3 days.
We asked whether an ASO could also be developed for Xi-reactivation. We screened a small ASO library against various targets of potential interest, including Xist RNA and an antisense transcript to Mecp2 (Mecp2-as) (FIG. 1A, FIG. 6, Table S-I). In designing the ASOs, we chose phosporothioate backbone and locked nucleic acid (LNA™) chemistry (Wahlestedt C et al. Potent and nontoxic antisense oligonucleotides containing locked nucleic acids. Proc Natl Acad Sci USA. 2000; 97:5633-5638) for its in vivo and in vitro stability, and increased affinity and selectivity for RNA targets. All were designed as gapmers, with unmodified deoxyribonucleosides in the center flanked by 5′ and 3′ terminal locked nucleosides, to direct RNAse-H-mediated cleavage of the target transcript. […] The luciferase reporter provides a highly sensitive enzymatic detection method with a large dynamic range. […] Epigenetics Chromatin. […] Science. 2015; 349: aab2276-12), we examined the efficacy of each ASO in the presence of 0.5 uM decitabine (“Aza”; 5-aza-2′-deoxycytidine) for three days.

[3] = cited from earlier work
[4] = Aza three pulse treatment, long-term health, lifespan and body weight
Protocol: Aza was administered to the Xist2lox, Nestin-Cre F2 generation, by IP injection at 5 weeks old. Three injections 100 ul per 10 g of 0.033 mg/ml in sterile saline (or just sterile saline as control) were given over the course of a week (each injection separated by 2 days). Both Xist2lox/2lox and Xist Δ/Δ were injected and were randomly assigned to the treatment group. No specific randomization protocol was followed. RNA from the brain and liver were harvested (as described before) at 7 weeks of age (2 weeks after the first injection).

[5] = tested on: X-linked gene expression relative to autosomal expression; test: Aza three pulse treatment, transcriptomic analysis of brain and liver; format: in vivo, mouse
Excerpt: All libraries were sequenced with Illumina HiSeq, generating 28-54 millions paired-end 50 nucleotide reads per sample. RNA-seq reads were aligned allele-specifically to 129S1/SvJm (mus) and CAST/Eih (cas) genome using TopHat2 (Kim D, et al. (2013) TopHat2: Accurate alignment of transcriptomes in the presence of insertions, deletions and gene fusions. Genome Biol 14:R36). After removal of PCR duplicates, all unique reads mapped to the exons of each gene were quantified by Homer (Heinz S, et al. (2010) Simple combinations of lineage-determining transcription factors prime cis-regulatory elements required for macrophage and B cell identities. Mol Cell 38:576-589). […] To compare the fold change of autosomal and X-linked genes, only genes with FPKM≥1 were considered (Yang L, Kirby J E, Sunwoo H, Lee J T (2016) Female mice lacking Xist RNA show partial dosage compensation and survive to term. Genes Dev 30:1747-1760). […] For allele-specific analysis, we defined % mus as the percentage of mus-specific exonic reads in all allele-specific (mus-specific+cas-specific) exonic reads of each transcript. For classification of X-linked genes, we defined expressed genes as genes having non-zero FPKM in all samples. Allele-assessable genes were defined as active genes that have more than 12 allele-specific reads in all samples (Pinter S F and Colognori D (2015) Allelic imbalance is a prevalent and tissue-specific feature of the mouse transcriptome. Genetics 200:537-549). It has been described that a small fraction of genes overlap with incorrectly annotated SNPs and produce unexpected allelic skewing (Pinter S F and Colognori D (2015) Allelic imbalance is a prevalent and tissue-specific feature of the mouse transcriptome. Genetics 200:537-549; Calabrese J M et al. (2012) Site-specific silencing of regulatory elements as a mechanism of X inactivation. Cell 151:951-963). These genes were identified by analyzing a published RNA-seq dataset of tail-tip fibroblasts (TTF) from pure Mus castaneous background. […]

Xi-Mecp2-Luc MEF cells [6] = format: cell-based
Protocol: as §1
Imaging was done with a Nikon Eclipse TE2000-E equipped with a HamamatsuCCD camera. Image analysis was done with OpenLAB software (Agilent).

## Nc1ncn([C@H]2C[C@H](O)[C@@H](CO)O2)c(=O)n1 [Aza, 5-aza-2′-deoxycytidine]
Xi-Mecp2-Luc MEF cells [1]
  IC50: 500 nM
[2]; 5 days
  Mecp2:luciferase upregulation, single treatments compared with the combination: remained significantly lower
[3]; cited: Chabot et al., rabbits and dogs
  blood-brain-barrier crossing: can cross the blood-brain-barrier
[3]; plasma
  half-life (t1/2) in plasma: < 1 h
[4]; after short-term Aza pulse treatment
  survival: all mice advanced to 1-2 year of age
[4]; mouse, in vivo
  body weight, Aza versus saline treatment groups: did not introduce significant differences
  health and lifespan: no measurable differences in health and lifespan
[5]; three IP Aza pulses over one week at 5 weeks of age, harvested two weeks later, liver (Xist not deleted)
  X- and autosomal gene expression in liver: remained balanced
[5]; three IP Aza pulses over one week combined with Xist deletion, brain two weeks later
  X-linked gene expression relative to autosomal expression in XistΔ/Δ brain: highly significant positive changes in X-linked gene expression relative to autosomal expression; also recorded: X-upregulation evident in the brain two weeks later; also recorded: sufficient to induce Xi reactivation after two weeks in the brain
[5]; three IP Aza pulses over one week, brain two weeks later
  X-to-autosomal gene expression in Xist2lox/2lox (wild-type) brain: did not result in X-to-autosomal gene imbalance
Xi-Mecp2-Luc MEF cells [6]; 1.0, 2.5 uM Aza, 3-day treatment
  cell death at higher Aza concentrations: increased cell death
Xi-Mecp2-Luc MEF cells [6]; FIG. 2C
  tolerable Aza concentrations in cell culture: 0.5 µM

## CCN(c1cc(-c2ccc(CN3CCOCC3)cc2)cc(C(=O)NCc2c(C)cc(C)[nH]c2=O)c1C)C1CCOCC1 [EPZ6438, N-((4,6-dimethyl-2-oxo-1,2-dihydropyridin-3-yl)methyl)-5-(ethyl(tetrahyd-ro-2H-pyran-4-yl)amino)-4-methyl-4′-(morpholinomethyl)-[1,1′-biphenyl]-3-carboxamide]
[2]; 3 days
  Xi-Mecp2 upregulation / reactivation in combination with the Xist ASO: varying degrees of upregulation; also recorded: larger degree of reactivation than previously seen with any other compound

## Cc1cc(Nc2cc(N3CCN(C)CC3)nc(Sc3ccc(NC(=O)C4CC4)cc3)n2)n[nH]1 [VX680]
[2]; 3 days
  Xi-Mecp2 upregulation / reactivation in combination with the Xist ASO: varying degrees of upregulation; also recorded: larger degree of reactivation than previously seen with any other compound

## Scr ASO: negative control ASO, scrambled sequence; AACACGTCTATACGC, SEQ ID NO: 1 (all phosphorothioate, sugars by position and methylation of C not given here; LNA gapmer with DNA center and LNA wings)
[2]; 3 days, ASO 20 nM or Aza 0.5 uM alone
  luminescent counts per second (LCPS) / Mecp2:luciferase reactivation, single treatment: neither the control Scr ASO (20 nM) nor Xist ASO (20 nM gapmer 1) resulted in measurable luminescent counts per second

## Xist ASO 2: LNA gapmer ASO targeting Xist exon 1; AGTAGCTCGGTGGAT, SEQ ID NO: 3 (all phosphorothioate, sugars by position and methylation of C not given here; LNA gapmer with DNA center and LNA wings)
[2]
  upregulation of MECP2 by other Xist gapmers: found to also upregulate MECP2

## Xist ASO 3: LNA gapmer ASO targeting Xist exon 1; TGAGTCTTGAGGAGAA, SEQ ID NO: 4 (all phosphorothioate, sugars by position and methylation of C not given here; LNA gapmer with DNA center and LNA wings)
[2]
  upregulation of MECP2 by other Xist gapmers: found to also upregulate MECP2
